According to article PMC6337627 (Molecules, 2019):
Several values for one entry are separate records, joined by “and”; a condition that tells them apart may be missing. Identical values can stand only once. Starred links: 1 amine or outer side, 2 acyl side, 3 side chain; linkers in the order of their positions; H or OH if unused. Non-standard residues stand in square brackets, D forms with d. Residues, ends and D or L forms follow the SMILES beside them. ξ: configuration not given here. Suc = O=C(CCC(=O)[*:2])[*:1]; Nphe = O=C(O)CNCc1ccccc1; ξF = NC(Cc1ccccc1)C(=O)O; Ava = NCCCCC(=O)O; GABA = NCCCC(=O)O; βAla = NCCC(=O)O

What was measured:
[1] = target: acetylcholinesterase (AChE) (Electrophorus electricus, UniProt O42275); assay: biochemical; details: for IC50: AChE from Electrophorus electricus, substrate acetylthiocholine, 30 min pre-incubation, mean ± SEM of triplicate independent experiments; for Selectivity: AChE versus BuChE (values fit IC50 BuChE / IC50 AChE)
[2] = target: T1, butyrylcholinesterase (BuChE) (Equus caballus, UniProt P81908); assay: biochemical; details: BuChE from equine serum, substrate butyrylthiocholine, 30 min pre-incubation, mean ± SEM of triplicate independent experiments
T1 construct: from Electrophorus electricus and equine serum; from tissue; host or cells: equine serum

[3] = target: AChE (Electrophorus electricus, UniProt O42275); assay: Kinetic study of AChE inhibition (Michaelis-Menten, Lineweaver-Burk); format: biochemical; details: Lineweaver-Burk plots, variation in Km and Vmax
Method: For this purpose, the rate of enzyme activity was measured at eight different concentrations of substrate ATC.
The assays were carried out in a total volume of 200 μL per well containing AChE from Electrophorus electricus (0.20 unit/mL) in PBS, the synthesized compound in DMSO, PBS at IC50, 2× IC50 concentration, and substrate solution. The general procedure was as follows: AChE and the synthesized compounds 7a to IC50 and twice concentrations in PBS were mixed and incubated at rt for 30 min. After incubation, substrate from 3.8 × 10^−3–0.48 mM was added into the mixture. The reaction was recorded for 10 min measuring the absorbance at 405 nm using a Microtiter plate reader (Multiskan EX, Thermo). Data were plotted using GraphPad Prism v4.03 software (GraphPad Software Inc., San Diego, CA, USA) to obtain the Michaelis–Menten constant (Km) and maximal velocity (Vmax) values. Km values were expressed in μM and Vmax as mol/min/mg protein and correspond to the mean ± SD of three independent assays in triplicate.
Figure 1 The Lineweaver–Burk plot of AChE (0.02 U) with an acetylthiocholine substrate in the absence and presence of inhibitor 7a.

Sequence of acetylcholinesterase (AChE) (O42275 24-633): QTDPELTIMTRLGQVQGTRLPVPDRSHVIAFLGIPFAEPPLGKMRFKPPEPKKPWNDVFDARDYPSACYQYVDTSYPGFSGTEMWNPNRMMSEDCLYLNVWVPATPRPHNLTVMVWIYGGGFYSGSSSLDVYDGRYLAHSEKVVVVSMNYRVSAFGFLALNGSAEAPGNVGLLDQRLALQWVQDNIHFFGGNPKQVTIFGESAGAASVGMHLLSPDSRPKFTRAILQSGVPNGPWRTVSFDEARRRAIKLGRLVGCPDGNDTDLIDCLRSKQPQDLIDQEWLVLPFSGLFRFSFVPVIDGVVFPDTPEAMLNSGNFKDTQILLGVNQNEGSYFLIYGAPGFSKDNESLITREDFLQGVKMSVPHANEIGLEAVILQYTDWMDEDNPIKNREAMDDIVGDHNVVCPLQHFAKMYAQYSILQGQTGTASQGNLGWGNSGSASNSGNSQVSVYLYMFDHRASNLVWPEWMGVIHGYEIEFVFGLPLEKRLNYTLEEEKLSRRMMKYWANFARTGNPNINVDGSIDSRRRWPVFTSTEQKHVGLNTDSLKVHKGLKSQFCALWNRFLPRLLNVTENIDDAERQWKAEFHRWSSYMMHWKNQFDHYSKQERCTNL
T1 sequence (P81908 whole entry): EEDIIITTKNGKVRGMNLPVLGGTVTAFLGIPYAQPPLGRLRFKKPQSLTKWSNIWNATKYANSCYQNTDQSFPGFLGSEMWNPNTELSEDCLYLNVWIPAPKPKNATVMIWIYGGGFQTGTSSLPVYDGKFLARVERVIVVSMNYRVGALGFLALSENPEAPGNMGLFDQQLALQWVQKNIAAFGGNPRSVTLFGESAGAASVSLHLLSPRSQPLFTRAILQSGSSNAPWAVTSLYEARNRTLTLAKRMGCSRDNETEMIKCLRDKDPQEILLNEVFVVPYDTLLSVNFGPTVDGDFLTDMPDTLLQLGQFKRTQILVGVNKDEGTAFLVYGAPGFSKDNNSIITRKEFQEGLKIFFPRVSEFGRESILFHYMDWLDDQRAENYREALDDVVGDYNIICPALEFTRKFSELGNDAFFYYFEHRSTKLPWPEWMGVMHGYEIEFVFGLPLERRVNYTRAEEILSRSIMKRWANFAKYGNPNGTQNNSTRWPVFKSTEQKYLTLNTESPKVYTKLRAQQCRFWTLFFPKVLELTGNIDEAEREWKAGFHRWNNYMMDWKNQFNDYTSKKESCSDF
Sequence of AChE (O42275 24-633): as the sequence (O42275 24-633) above

SMILES | IC50 [1] | Selectivity [1] | IC50 [2] | kinetic mode of AChE inhibition [3]
O=C(O)CCCN(CC(=O)NC(Cc1ccccc1)C(=O)O)C(=O)c1ccccc1 (stereo not shown) [6d] | 10.6 ± 1.5 µM | 28.36 | 302 ± 5.8 µM | –
O=C(O)CCC(=O)N(CC(=O)NC(Cc1ccccc1)C(=O)O)Cc1ccccc1 (stereo not shown) [6e, 2,6-Dibenzyl-4,7-dioxo-3,6-diazadecanedioic acid] (Suc-[Nphe]-[ξF]-OH) | 305 ± 5.7 µM | 0.45 | 135 µM and 136 µM | –
NCCC(=O)N(CC(=O)NC(Cc1ccccc1)C(=O)O)Cc1ccccc1 (stereo not shown) [7b, 9-Amino-2,6-dibenzyl-4,7-dioxo-3,6-diazanonanoic acid] (H-[βAla]-[Nphe]-[ξF]-OH) | 41.3 ± 2.3 µM | 11.17 | 461 ± 6.2 µM | –
NCCCC(=O)N(CC(=O)NC(Cc1ccccc1)C(=O)O)Cc1ccccc1 (stereo not shown) [7a, 10-Amino-2,6-dibenzyl-4,7-dioxo-3,6-diazadecanoic acid] (H-[GABA]-[Nphe]-[ξF]-OH) | 3.67 ± 0.8 µM | 66.44 | 244 ± 4.6 µM | mixed-type inhibition
NCCCCC(=O)N(CC(=O)NC(Cc1ccccc1)C(=O)O)Cc1ccccc1 (stereo not shown) [7c, 11-Amino-2,6-dibenzyl-4,7-dioxo-3,6-diazaundecanoic acid] (H-[Ava]-[Nphe]-[ξF]-OH) | 12.6 ± 1.6 µM | 50.69 | 636.7 ± 3.7 µM | –
